# Entries after “also recorded” stand apart in the source; their conditions may differ. Structures can show the parent of a compound that is named as a salt. Where two headings read alike, the source gives them in different places.
# Tests used:
# [1] = tested on: TK6 cells; experiment: In vitro micronucleus assay (In Vitro MICROFLOW kit)
# Description: The in vitro micronucleus assay is a chromosomal damage test that is widely used to evaluate chemical and/or physical agents for clastogenic and aneugenic activity. […] Furthermore, in the usual conduct of the in vitro micronucleus assay, the discrimination of bona fide genotoxic activity as primarily occurring through a clastogenic or aneugenic mode of action is not readily obtained.
# For these experiments, each of the 20 chemicals was tested over closely spaced concentrations, 6 replicate wells per concentration. Three wells were used for the micronucleus analyses, and three wells were used for the several nuclear biomarker assessments of the type described in Example 1. Other endpoints of cytotoxicity were considered, including […], ethidium monoazide bromide (EMA) positive events as an indicator of membrane integrity, tetramethylrhodamine ethyl ester (TMRE) negative cells as an assessment of mitochondrial membrane potential, and ATP levels (using luciferase) as an assessment of overall cell health in the sample. […] Further details are described under Statistical Analyses, as well as Example 4 below.
# Those cytotoxicity evaluations were based on a conventional approach for assessing cytotoxicity in genotoxicity tests, that is, relative cell counts (which in the case of the flow cytometry-based In Vitro MICROFLOW® kit is accomplished by measuring nuclei to counting bead ratio or else nuclei to time ratio and expressing these values relative to the mean solvent control value). […] The remaining three wells per concentration were used to accomplish a series of nuclei biomarker readings according to the invention, as well as two other assessments of cytotoxicity—frequency of TMRE-negative cells and ATP levels (via Promega's CELL TITERGLO® kit).
# [2] = tested on: TK6 cells; format: cell-based
# Description: This experiment highlights the ability of the invention to combine multiple nuclei-associated endpoints into one flow cytometric analysis. For this experiment, log-phase TK6 cells were treated with cisplatin over a wide range of concentrations and then incubated at 37° C. for 24 hours. Each concentration was studied in triplicate wells of a 96 well plate. After 24 hours, well contents were pipetted up and down several times to form homogenous suspensions, and 25 μl per well was added to wells of a new 96 well plate that contained 50 μl of working lysis/labeling/staining solution. This lysis/labeling/staining solution was comprised of 5 μl anti-γH2AX-Alexa® 488/ml, 1 μl anti-phospho-H3-PE/ml, 5 μl anti-cleaved PARP-Alexa® 647/ml, 5 μRNase/ml, […] Absolute Count Bead/50 μl
# [3] = tested on: TK6 cells; experiment: Nuclei to bead ratio (relative cell count, cytotoxicity) by flow cytometry; format: cell-based
# [4] = tested on: TK6 cells; experiment: Cleaved PARP-positive nuclei by flow cytometry; format: cell-based; settings: for PARP-Positive Nuclei (Fold-Increase): 24-27 hours, relative to Control
# Description: (§1) This chemical was also observed to affect cleaved PARP and Caspase 3 levels in nuclei, as evidenced by the higher values of cleaved PARP- and Caspase 3-positive nuclei relative to solvent control wells.
# [5] = tested on: TK6 cells; experiment: Cleaved caspase 3-positive nuclei by flow cytometry; format: cell-based; settings: for Caspase 3-Positive Nuclei (Fold-Increase): 24-27 hours, relative to Control
# Description: as §1
# [6] = tested on: TK6 cells; settings: human
# [7] = tested on: TK6 cells; settings: human; remark: listed apart in the source
# Description: The TK6 cells used in these experiments were from American Type Tissue Collection (ATCC) (Manassas, Va.). Cells were maintained in culture medium at 37° C., 5% CO2, and in a humid atmosphere. Cells were maintained between approximately 1×10^4 and 1×10^6 cells/ml for routine passage.
# For these experiments, TK6 cells were treated with solvent (most often DMSO, 1% v/v) and a range of closely spaced test article concentrations. Treatments occurred in wells of a 96-well plate. At the start of treatment, cells were at 2×10^5/ml in a volume of 300 μl per well. Counting beads (PEAK FLOW™) were included in these cultures at a concentration of approximately 1 drop per 10 ml, and served as a means to derive relative nuclei to bead ratios (relative to solvent controls). Continuous treatment occurred for approximately 24 hrs, during which time plates were incubated at 37° C., 5% CO2, and in a humid atmosphere. Each test article concentration was studied in 3 to 6 replicate wells.
# The γH2AX endpoint described herein was studied 4 and/or 24-27 hrs after start of treatment. Each of the remaining endpoints were studied at the conclusion of the treatment period, that is 24 to 27 hrs after initiation of exposure to test article (which for this cell line corresponds to approximately 1.5 to 2.0 population doubling times).
# At the time of cell harvest (4 hrs and 24 to 27 hrs), cells were resuspended with gentle pipetting and 25 μl aliquots were transferred to wells of a 96 well plate containing 50 μl pre-aliquoted lysis solution.
# After incubation at room temperate for at least 5 minutes, samples were analyzed with a dual-laser flow cytometer, 488 nm and 633 nm excitation (FACSCanto II, BD Biosciences, San Jose, Calif.). Instrumentation settings and data acquisition/analysis were controlled with Diva software v6.1.3. […] The BD Biosciences High Throughput Sampler (HTS) attachment was used to automatically analyze each of the samples in the 96 well plate(s). For the majority of these endpoints and experiments, the stop mode was configured such that each well was analyzed for 5 seconds, which usually represented sufficient time to acquire at least 500 NAD-positive nuclei.
# Treatments occurred over a range of closely spaced concentrations.
# [8] = TK6 cells, continuous exposure 24-27 hrs, In Vitro MICROFLOW kits
# [9] = 24-27 hours after start of treatment
compound,measurement,setting,value
COC(=O)Nc1nc2ccccc2[nH]1 [carbendazim],in vitro micronucleus results,[1],positive
O=c1[nH]cc(F)c(=O)[nH]1 [5-fluorouracil],in vitro micronucleus results,[1],positive
C[C@@]1(CO)[C@H](O)CC[C@@]2(C)[C@H]1CC[C@H]1C[C@@H]3C[C@@]12CC[C@]3(O)CO [aphidicoline],in vitro micronucleus results,[1]; [8],positive
"N.N.[Cl][Pt][Cl] [Cisplatin, cisplatin]",absolute and relative nuclei counts (effect in words),[2],reduced in a cisplatin concentration-dependent manner
same,anti-cleaved PARP positive chromatin (effect in words),[2],increased in a cisplatin concentration-dependent manner
same,anti-phospho-H3 positive nuclei (effect in words),[2],reduced in a cisplatin concentration-dependent manner
same,other changes to cell cycle (effect in words),[2],accumulation of cells in the G2/M phase
same,shift in anti-γH2AX-associated fluorescence (effect in words),[2],increased in a cisplatin concentration-dependent manner
same,in vitro micronucleus results,[1],positive
"N#CC(C#N)=NNc1cccc(Cl)c1 [CCCP, carbonyl cyanide m-chlorophenyl hydrazone]",Nuclei to Bead Ratio (% of Control),"[3]; CCCP 3.125 μM, TK6 cells, 24-27 hours after start of treatment",79 % of Control
same,Nuclei to Bead Ratio (% of Control),"[3]; CCCP 4.6875 μM, TK6 cells, 24-27 hours after start of treatment",69 % of Control
same,Nuclei to Bead Ratio (% of Control),"[3]; CCCP 6.25 μM, TK6 cells, 24-27 hours after start of treatment",64 % of Control
same,Nuclei to Bead Ratio (% of Control),"[3]; CCCP 9.375 μM, TK6 cells, 24-27 hours after start of treatment",59 % of Control
same,Nuclei to Bead Ratio (% of Control),"[3]; CCCP 12.5 μM, TK6 cells, 24-27 hours after start of treatment",50 % of Control
same,nuclei to bead ratios (effect in words),"[3]; TK6 cells, range of closely spaced concentrations, 24-27 hours, indicative of fewer cells and therefore cytotoxicity",concentration-dependent reductions
same,cleaved PARP-positive nuclei relative to solvent control wells (effect in words),[4]; [9],higher values
same,PARP-Positive Nuclei (Fold-Increase),[4]; CCCP 3.125 μM,4.90 Fold-Increase
same,PARP-Positive Nuclei (Fold-Increase),[4]; CCCP 4.6875 μM,8.60 Fold-Increase
same,PARP-Positive Nuclei (Fold-Increase),[4]; CCCP 6.25 μM,12.1 Fold-Increase
same,PARP-Positive Nuclei (Fold-Increase),[4]; CCCP 9.375 μM,20.75 Fold-Increase
same,PARP-Positive Nuclei (Fold-Increase),[4]; CCCP 12.5 μM,34.45 Fold-Increase
same,cleaved Caspase 3-positive nuclei relative to solvent control (effect in words),[5]; [9],visibly increased; also recorded: higher values
same,Caspase 3-Positive Nuclei (Fold-Increase),[5]; CCCP 3.125 μM,2.63 Fold-Increase
same,Caspase 3-Positive Nuclei (Fold-Increase),[5]; CCCP 4.6875 μM,4.33 Fold-Increase
same,Caspase 3-Positive Nuclei (Fold-Increase),[5]; CCCP 6.25 μM,5.86 Fold-Increase
same,Caspase 3-Positive Nuclei (Fold-Increase),[5]; CCCP 9.375 μM,9.13 Fold-Increase
same,Caspase 3-Positive Nuclei (Fold-Increase),[5]; CCCP 12.5 μM,18.83 Fold-Increase
same,in vitro micronucleus results,[1]; [8],positive
COc1cc([C@@H]2c3cc4c(cc3[C@@H](O[C@@H]3O[C@@H]5CO[C@@H](C)O[C@H]5[C@H](O)[C@H]3O)[C@H]3COC(=O)[C@H]23)OCO4)cc(OC)c1O [etoposide],in vitro micronucleus results,[1],positive
tunicamycin,in vitro micronucleus results,[1]; [8],positive
"COS(C)(=O)=O [MMS, methyl methanesulfonate]",nuclei to bead ratios (effect in words),[3],concentration-dependent reductions
same,Nuclei to Bead Ratio (% of Control),"[3]; human, 2.344 μg/ml",88 % of Control
same,Nuclei to Bead Ratio (% of Control),"[3]; human, 3.125 μg/ml",87 % of Control
same,Nuclei to Bead Ratio (% of Control),"[3]; human, 4.6875 μg/ml",83 % of Control
same,Nuclei to Bead Ratio (% of Control),"[3]; human, 6.25 μg/ml",78 % of Control
same,Nuclei to Bead Ratio (% of Control),"[3]; human, 9.375 μg/ml",64 % of Control
same,Nuclei to Bead Ratio (% of Control),"[3]; human, 12.5 μg/ml",58 % of Control
same,Phospho-H3+ Nuclei (Fold-Increase),[6]; 2.344 μg/ml,1.00 Fold-Increase
same,Phospho-H3+ Nuclei (Fold-Increase),[6]; 3.125 μg/ml,0.76 Fold-Increase
same,Phospho-H3+ Nuclei (Fold-Increase),[6]; 4.6875 μg/ml,0.67 Fold-Increase
same,Phospho-H3+ Nuclei (Fold-Increase),[6]; 6.25 μg/ml,0.71 Fold-Increase
same,Phospho-H3+ Nuclei (Fold-Increase),[6]; 9.375 μg/ml,0.76 Fold-Increase
same,Phospho-H3+ Nuclei (Fold-Increase),[6]; 12.5 μg/ml,0.65 Fold-Increase
same,in vitro micronucleus results,[1],positive
same,γH2AX Fluorescence (Fold-Increase),[7]; 2.344 μg/ml,3.13 Fold-Increase
same,γH2AX Fluorescence (Fold-Increase),[7]; 3.125 μg/ml,4.11 Fold-Increase
same,γH2AX Fluorescence (Fold-Increase),[7]; 4.6875 μg/ml,4.36 Fold-Increase
same,γH2AX Fluorescence (Fold-Increase),[7]; 6.25 μg/ml,4.92 Fold-Increase
same,γH2AX Fluorescence (Fold-Increase),[7]; 9.375 μg/ml,4.79 Fold-Increase
same,γH2AX Fluorescence (Fold-Increase),[7]; 12.5 μg/ml,4.80 Fold-Increase
"CC[C@]1(O)C[C@@H]2CN(CCc3c([nH]c4ccccc34)[C@@](C(=O)OC)(c3cc4c(cc3OC)N(C)[C@H]3[C@@](O)(C(=O)OC)[C@H](OC(C)=O)[C@]5(CC)C=CCN6CC[C@]43[C@@H]65)C2)C1 [Vinblastine, vinblastine]",nuclei to bead ratios (effect in words),[3],concentration-dependent reductions
same,Nuclei to Bead Ratio (% of Control),"[3]; human, 0.3 ng/ml",98 % of Control
same,Nuclei to Bead Ratio (% of Control),"[3]; human, 0.4 ng/ml",97 % of Control
same,Nuclei to Bead Ratio (% of Control),"[3]; human, 0.6 ng/ml",86 % of Control
same,Nuclei to Bead Ratio (% of Control),"[3]; human, 0.8 ng/ml",81 % of Control
same,Nuclei to Bead Ratio (% of Control),"[3]; human, 1.2 ng/ml",71 % of Control
same,Nuclei to Bead Ratio (% of Control),"[3]; human, 1.6 ng/ml",58 % of Control
same,Phospho-H3+ Nuclei (Fold-Increase),[6]; 0.3 ng/ml,.86 Fold-Increase
same,Phospho-H3+ Nuclei (Fold-Increase),[6]; 0.4 ng/ml,.86 Fold-Increase
same,Phospho-H3+ Nuclei (Fold-Increase),[6]; 0.6 ng/ml,1.23 Fold-Increase
same,Phospho-H3+ Nuclei (Fold-Increase),[6]; 0.8 ng/ml,2.11 Fold-Increase
same,Phospho-H3+ Nuclei (Fold-Increase),[6]; 1.2 ng/ml,4.85 Fold-Increase
same,Phospho-H3+ Nuclei (Fold-Increase),[6]; 1.6 ng/ml,5.41 Fold-Increase
same,in vitro micronucleus results,[1],positive
Nc1ccn([C@@H]2O[C@H](CO)[C@@H](O)[C@@H]2O)c(=O)n1 [arabinofuranosyl cytidine],in vitro micronucleus results,[1]; [8],positive
[H]/N=C(/N)N/C(=N/[H])NCCc1ccccc1 [phenformin HCl],in vitro micronucleus results,[1]; [8],positive
COc1ccc(C2=N[C@@H](c3ccc(Cl)cc3)[C@@H](c3ccc(Cl)cc3)N2C(=O)N2CCNC(=O)C2)c(OC(C)C)c1 [nutlin-3],in vitro micronucleus results,[1]; [8],positive
NC(=O)NO [hydroxyurea],in vitro micronucleus results,[1],positive
CC[C@@]1(O)C(=O)OCc2c1cc1n(c2=O)Cc2cc3ccccc3nc2-1 [camptothecin],in vitro micronucleus results,[1]; [8],positive
CC/C(=C(/CC)c1ccc(O)cc1)c1ccc(O)cc1 [diethylstilbestrol],in vitro micronucleus results,[1]; [8],positive

# Source: US11016101B2, “Simplified nuclei analysis platform and biomarker matrix that supports genotoxic mode of action determinations” (Litron Laboratories, Ltd., priority 2013, dated 2021)
